Data on one compound can be found in patent US20130252983A1, “ACTIVATING PHOSPHORYLATION SITE ON GLUTAMINASE C” (CORNELL UNIVERSITY, priority 2010, published 2013).

One assay relates to SKBR3 cells. In words: Soft-agar colony formation, SKBR3. The conditions noted are these: 10 μM. It counts as cell-based, human. On the procedure: (§1) FIGS. 2A-G illustrate effects of 968 on the transforming activity of constitutively active Rho GTPases and human breast cancer cells. […] Cells were scored after 14 days and plotted as the percentage of the total number of colonies greater than 50 μm in diameter. Data represent the average of 3 experiments (±s.d.). […] Data represent the average of 3 experiments (±s.d.). […] Data represent the average of 3 experiments (±s.d.). […] After 24 hours at 37° C., the migratory cells were fixed, stained with GIEMSA, and counted. Data represent the average of 3 experiments (±s.d.). […] Data represent the average of 3 experiments (±s.d.). […] Data represent the average of 3 experiments (±s.d.). […] Data represent the average of 3 experiments (±s.d.).

Assay [1] relates to NIH 3T3 cells stably expressing Cdc42(F28L), Rac(F28L), RhoC(F30L). Put plainly: Soft-agar colony formation of cells expressing activated Rho GTPase mutants. It counts as cell-based, mouse. The conditions noted are these: 10 μM, 14 days. Here is the method: as §1
Assay [2] has the same test system. In words: Growth to high density or in low serum of cells expressing activated Rho GTPase mutants. It counts as cell-based, mouse. The conditions noted are these: 10 μM. On the procedure: as §1
Assay [3] concerns the target T1, mouse GAC (E. coli-expressed mouse ortholog of human GAC) (Mus musculus, UniProt D3Z7P3).
T1 construct: A plasmid encoding mouse GAC (residues 128-603) was cloned into the pET28a vector; His (N, cleaved yes); made in house; host or cells: E. coli (pET28a)
T1 sequence (D3Z7P3 128-603 isoform D3Z7P3-2): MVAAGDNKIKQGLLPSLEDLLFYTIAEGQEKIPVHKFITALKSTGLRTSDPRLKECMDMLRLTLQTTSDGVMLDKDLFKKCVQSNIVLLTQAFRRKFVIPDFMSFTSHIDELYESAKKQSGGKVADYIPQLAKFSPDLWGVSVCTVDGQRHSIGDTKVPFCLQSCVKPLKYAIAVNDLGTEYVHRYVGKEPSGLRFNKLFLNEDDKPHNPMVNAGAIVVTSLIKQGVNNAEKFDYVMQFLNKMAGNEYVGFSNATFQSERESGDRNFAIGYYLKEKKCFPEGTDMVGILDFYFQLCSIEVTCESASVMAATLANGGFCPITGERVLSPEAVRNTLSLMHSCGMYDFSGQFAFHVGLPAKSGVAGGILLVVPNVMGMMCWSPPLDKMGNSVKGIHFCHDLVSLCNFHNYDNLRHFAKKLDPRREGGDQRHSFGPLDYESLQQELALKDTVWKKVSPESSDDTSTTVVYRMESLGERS
In words: Recombinant glutaminase activity assay. It counts as biochemical. Here is the method: 100%=620 moles of glutamine hydrolyzed per minute per mole of enzyme. Data represent the average of 3 experiments (±s.d.). […] Following precipitation of the beads and re-suspension, the samples were analyzed by Western blotting with anti-V5 antibody. […] Data represent the average of 3 experiments (±s.d.). […] Data represent the average of 3 experiments (±s.d.). […] Data represent the average of 3 experiments (±s.d.). FIG. 3E NIH 3T3 cells transiently expressing Dbl were assayed for focus formation in the presence of 10 μM 968 alone or together with 7 mM dimethyl α-ketoglutarate. […] 100%=680 nM glutamine hydrolyzed per minute per 10^5 cells. Data are the average of 3 experiments (±s.d.). […] 100%=750 nM glutamine hydrolyzed per minute per 10^5 cells. Data represent the average of 3 experiments (±s.d.).
The activity of the E. coli-expressed recombinant mouse ortholog of human GAC were assayed in the presence of 0 ([…]), 10 (∇) or 20 (▪) μM 968 and inorganic phosphate in the form of dipotassium hydrogen phosphate. […] The data are plotted as GA activity as function of varying concentrations of glutamine or inorganic phosphate. The data are the average of 3 experiments and are plotted as mean±SEM.
Glutaminase activity assays were performed on recombinant enzyme as previously described (Kenny et al., “Bacterial Expression, Purification and Characterization of Rat Kidney-Type Mitochondrial Glutaminase,” Protein Expr. Purif. 31:140-148 (2003), which is hereby incorporated by reference in its entirety). A plasmid encoding mouse GAC (residues 128-603) was cloned into the pET28a vector and the protein was expressed with an N-terminal histidine (His)-tag. The tag was cleaved using thrombin and the protein was further purified by anion-exchange and gel-filtration chromatography. […] The reaction mixture was incubated at room temperature for 45 minutes and the absorbance at 340 nm was recorded for each sample against a water blank. The absorbance of the sample with just the cocktail mixture was subtracted from each reading to calculate the activity of the enzyme.

In the case of `CN(C)c1ccc(C2Nc3ccc4ccccc4c3C3=C2C(=O)CC(C)(C)C3)cc1Br` (stereo not drawn) [Compound 968, 5-[3-bromo-4-(dimethylamino)phenyl]-2,2-dimethyl-2,3,5,6-tetrahydrobenzo[a]], the “colony formation in soft agar” value in the assay with SKBR3 cells is “inhibits the ability”. Moreover, the “colony formation in soft-agar” value in assay [1] is “blocking their ability”. Moreover, the “growth under low serum conditions” value in assay [2] (1% calf serum) is recorded as “blocking their ability”. Further, the “growth to high density” value in assay [2] (10% calf serum, 6 days) is on record as “blocking their ability”. Besides, the “inhibition of enzymatic activity of purified mouse GAC” value in assay [3] is recorded as “inhibits the enzymatic activity”. Moreover, the mode of inhibition result in assay [3] (0, 10 or 20 μM, glutamine or inorganic phosphate varied) is listed as “neither competitive versus substrate (glutamine) nor inorganic phosphate”.
